Results as given in patent US7776572B2, “Method for reducing loss of enzyme activity during storage” (Corning Incorporated, priority 1996, dated 2010).

Key:
[1] = tested on: IgG (horse); experiment: IgG binding to 24-well plates, surfactant dried or not dried before H2O rinse, colloidal Au; conditions: 0.5% surfactant in H2O/isopropanol (90/10); for Absorbance (550 nm) Dried before H2O rinse: then rinsed 5x; for Absorbance (550 nm) H2O rinsed before drying: not dried, rinsed 5x immediately
Experimental: Duplicate 24-well plates were prepared as follows. Individual wells were filled with 3 ml of non-ionic surfactants at 0.5% (weight/volume) in H2O/isopropanol (90/10 weight/volume).
The duplicate plates were incubated for 30 minutes at room temperature on a rocker table and then emptied. One plate was tapped out and then allowed to dry at room temperature in a hood. It was then rinsed 5× with dI H2O. The second plate was not allowed to dry, but instead was immediately rinsed 5× with H2O. The plates were then tested for protein binding by filling each well with 0.5 ml of IgG (horse) at 10 μg/ml in PBS buffer and incubating for 30 minutes on a rocker table at room temperature. The plates were then rinsed with dI H2O and stained overnight with colloidal Au.

[2] = tested on: BSA protein; experiment: Coating stability in the presence of excess protein, colloidal gold
Experimental: The following procedures were employed in this example. 24-well polystyrene plates were coated as described in Materials and Methods using 25 μl aliquots of 0.10% (w/v) sorbitol mono-oleate in isopropanol. Coverage of the sorbitol mono-oleate was calculated at 10 μg/cm^2. Each well of the plates was exposed to 1.0 ml of BSA protein (Pierce) at 2 mg/ml in PBS buffer (pH=7.4). The plates were incubated on a rocker table for 30 minutes at room temperature, the wells were emptied, and the protein exposure was repeated a total of six times. The plates were then rinsed 3 times with dI H2O and stained with the colloidal gold stain overnight. Plates were then rinsed with dI H2O, dried, and the absorbance of each well was measured at 550 nm on the Cambridge Technologies plate reader.

[3] = tested on: IgG (Horse Standard, Pierce); experiment: Coating durability using protein solution washes on four polymers, colloidal Au; conditions: after six IgG solution exposures
Experimental: The procedures used were as follows. Injection molded assay plates (96-well format) were made from polystyrene, (STYRON Dow 685D), polypropylene (Exxon 9374), polymethyl methacrylate (ATO HAAS), and KYNAR FLEX 2800 PVDF copolymer (ATO HAAS). Each well was aliquoted 0.10 ml of IgG (Horse Standard, Pierce) at 10 μg/ml in 0.01 M PBS buffer (pH=7.4) and placed on a rocker table for 30 minutes at 23° C. The protein solution was then emptied from the wells and a fresh protein solution was aliquoted to each well and the entire procedure repeated a total of six times. The plates were then rinsed three times with dI H2O (0.3 ml/well). Colloidal Au stain was added to each well (0.3 ml/well) and the plates were placed on a rocker table overnight. Plates were then rinsed 3 times with dI H2O, allowed to dry, and absorbance at 550 nm was measured using the Cambridge Technologies Plate Reader.

[4] = tested on: IgG protein; experiment: In-mold coating of 24-well polystyrene plates, protein binding by colloidal gold staining
Experimental: The in-mold coating aspects of the invention were tested by molding 24-well polystyrene plates. […] The 0.01% concentration was estimated to produce less than one monolayer of surfactant on the finished product, while the 0.1% concentration produced about 7 monolayers. The surfactant was applied to the mold using a Crown sprayer (Crown Industrial Products, Hebron, Ill.; Catalog #8011), which produces a sufficiently fine spray of droplets to uniformly coat the mold. The mold was sprayed before each part was made.

[5] = tested on: IgG; experiment: Protein binding to coated 0.45 micron PVDF membranes, Au stain; conditions: coated two times by immersion, 0.1% in isopropanol; IgG 10 μg/ml
Experimental: The experiments were performed using 0.45 micron PVDF membranes. The membranes were coated two times by immersion using 0.1% (weight/volume) of the following non-ionic surfactants in isopropanol: sorbitol mono-oleate, Pluronic® L-121, Pluronic® L-122, and Pluronic® L-123. The membrane was dried at room temperature after each of the two immersion coatings. The coated membranes were incubated with IgG 10 μg/ml in 0.1M PBS (pH 7.4) for 30 minutes at room temperature on an orbital shaker. The membranes were then rinsed three times with water in a clean plate, each rinse being performed for 5 minutes on the shaker. Thereafter, the membranes were stained with Au overnight, again on the shaker. An uncoated PVDF membrane was used as a control.

Compound	Absorbance (550 nm) Dried before H2O rinse [1]	Absorbance (550 nm) H2O rinsed before drying [1]	Absorbance at 550 nm ([2]; 1 exposure to BSA 2 mg/ml, 30 min total, coated polystyrene)	Absorbance at 550 nm ([2]; 2 exposures, 60 min total)	Absorbance at 550 nm ([2]; 3 exposures, 90 min total)	Absorbance at 550 nm ([2]; 4 exposures, 120 min total)	Absorbance at 550 nm ([2]; 5 exposures, 150 min total)	Absorbance at 550 nm ([2]; 6 exposures, 180 min total)	Absorbance (550 nm) Polypropylene [3]	Absorbance (550 nm) Polystyrene [3]	protein binding of in-mold coated part ([4]; concentrations above 0.1%, ranging up to 2%)	protein binding of in-mold coated part ([4]; mold sprayed with 0.01% (w/v) solution in isopropanol)	protein binding of in-mold coated part ([4]; mold sprayed with 0.1% (w/v) solution in isopropanol)	protein binding to coated PVDF membrane [5]
CCCCCCCC/C=C\CCCCCCCCOCCOCCO [PEO(2) OLEYL ETHER]	0.00	0.14-0.16	–	–	–	–	–	–	–	–	–	–	–	–
CCCCCCCCCCCCOCCOCCOCCOCCO [PEO(4) LAURYL ETHER]	0.08-0.10	0.13-0.16	–	–	–	–	–	–	–	–	–	–	–	–
SORBITOL MONO-OLEATE	–	–	0.0	0.0	0.0	0.0	0.0	0.0	0.00	0.00	found to work successfully	pooling and missed areas were seen which bound protein	essentially no protein binding	substantially identical to that of the uncoated PVDF
